Molecular target: T1, ER (Homo sapiens, UniProt P03372)
T1 construct: host or cells: T47D and MCF7 human breast cancer cells
T1 sequence (P03372 1-595): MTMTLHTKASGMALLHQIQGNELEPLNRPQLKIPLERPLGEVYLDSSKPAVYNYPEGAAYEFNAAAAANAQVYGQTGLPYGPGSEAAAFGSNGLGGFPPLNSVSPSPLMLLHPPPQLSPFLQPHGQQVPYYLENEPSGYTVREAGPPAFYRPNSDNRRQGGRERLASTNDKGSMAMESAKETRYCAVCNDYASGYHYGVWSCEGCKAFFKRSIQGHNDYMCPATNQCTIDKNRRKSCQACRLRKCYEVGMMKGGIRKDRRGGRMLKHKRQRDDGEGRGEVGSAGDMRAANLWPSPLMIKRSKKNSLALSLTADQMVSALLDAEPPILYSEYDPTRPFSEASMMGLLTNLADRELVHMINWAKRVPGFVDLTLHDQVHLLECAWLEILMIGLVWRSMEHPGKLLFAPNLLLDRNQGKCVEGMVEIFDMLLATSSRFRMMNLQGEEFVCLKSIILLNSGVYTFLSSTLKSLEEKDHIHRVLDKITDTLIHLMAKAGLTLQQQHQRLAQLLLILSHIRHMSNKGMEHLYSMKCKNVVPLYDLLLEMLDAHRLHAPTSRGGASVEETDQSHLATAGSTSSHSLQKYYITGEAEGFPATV
Experiment: ER degradation activity, in-cell western blot analysis in T47D cells
Type: cell-based
Details: 16 hours, Table A does not say which cell line (T47D or MCF7), read-out: Potency (DC50)
Outline: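 T47D cells cultured in DMEM with 10% FBS, treated with compounds (final 0.5% DMSO) for 16 h. ER level measured by in-cell western with anti-rabbit-680/anti-mouse-800 near-infrared detection. Relative ER percentage calculated against untreated and DMSO-treated wells set as 100%.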

Row | Compound | DC50 [nM]
1 | O=C1CCC(N2C(=O)c3cc4c(cc3C2=O)CN(C2CN(CC3CCN(c5ccc([C@@H]6c7ccc(O)cc7CC[C@@H]6c6ccccc6)cc5)CC3)C2)C4)C(=O)N1 (stereo partly drawn) [E 272, 2-(2,6-dioxopiperidin-3-yl)-6-(1-((1-(4-((1R,2S)-6-hydroxy-2-phenyl-1,2,3,4-tetrahydronaphthalen-1-yl)phenyl)piperidin-4-yl)methyl)azetidin-3-yl)-6,7-dihydropyrrolo[3,4-f]isoindole-1,3(2H,5H)-dione] | > 100
2 | O=C1CCC(N2C(=O)c3cc4c(cc3C2=O)CN(C2CCN(CC3CCN(c5ccc([C@@H]6c7ccc(O)cc7CC[C@@H]6c6ccc(F)cc6)cc5)CC3)CC2)C4)C(=O)N1 (stereo partly drawn) [E 273, 2-(2,6-dioxopiperidin-3-yl)-6-(1-((1-(4-((1R,2S)-2-(4-fluorophenyl)-6-hydroxy-1,2,3,4-tetrahydronaphthalen-1-yl)phenyl)piperidin-4-yl)methyl)piperidin-4-yl)-6,7-dihydropyrrolo[3,4-f]isoindole-1,3(2H,5H)-dione] | 10 to 100
3 | O=C1CCC(N2C(=O)c3cc4c(cc3C2=O)CN(CC2CN(CC3CCN(c5ccc([C@@H]6c7ccc(O)cc7CC[C@@H]6c6ccc(F)cc6)cc5)CC3)C2)C4)C(=O)N1 (stereo partly drawn) [E 274, 2-(2,6-dioxopiperidin-3-yl)-6-((1-((1-(4-((1R,2S)-2-(4-fluorophenyl)-6-hydroxy-1,2,3,4-tetrahydronaphthalen-1-yl)phenyl)piperidin-4-yl)methyl)azetidin-3-yl)methyl)-6,7-dihydropyrrolo[3,4-f]isoindole-1,3(2H,5H)-dione] | > 100
4 | O=C1CCC(N2Cc3cc4c(cc3C2=O)CN(C2CCN(CC3CCN(c5ccc([C@@H]6c7ccc(O)cc7CC[C@@H]6c6ccc(F)cc6)cc5)CC3)CC2)C4)C(=O)N1 (stereo partly drawn) [E 275, 3-(6-(1-((1-(4-((1R,2S)-2-(4-fluorophenyl)-6-hydroxy-1,2,3,4-tetrahydronaphthalen-1-yl)phenyl)piperidin-4-yl)methyl)piperidin-4-yl)-1-oxo-3,5,6,7-tetrahydropyrrolo[3,4-f]isoindol-2(1H)-yl)piperidine-2,6-dione] | < 10
5 | O=C1CCC(N2C(=O)c3cc4c(cc3C2=O)CN(C2CCN(CC3CN(c5ccc([C@H]6c7ccc(O)cc7CC[C@H]6c6ccc(F)cc6)cc5)C3)CC2)C4)C(=O)N1 (stereo partly drawn) [E 276, 2-(2,6-dioxopiperidin-3-yl)-6-(1-((1-(4-((1S,2R)-2-(4-fluorophenyl)-6-hydroxy-1,2,3,4-tetrahydronaphthalen-1-yl)phenyl)azetidin-3-yl)methyl)piperidin-4-yl)-6,7-dihydropyrrolo[3,4-f]isoindole-1,3(2H,5H)-dione] | > 100
6 | O=C1CCC(N2C(=O)c3cc4c(cc3C2=O)CN(CC2CCN(CC3CN(c5ccc([C@@H]6c7ccc(O)cc7CC[C@@H]6c6ccc(F)cc6)cc5)C3)CC2)C4)C(=O)N1 (stereo partly drawn) [E 277, 2-(2,6-dioxopiperidin-3-yl)-6-((1-((1-(4-((1R,2S)-2-(4-fluorophenyl)-6-hydroxy-1,2,3,4-tetrahydronaphthalen-1-yl)phenyl)azetidin-3-yl)methyl)piperidin-4-yl)methyl)-6,7-dihydropyrrolo[3,4-f]isoindole-1,3(2H,5H)-dione] | > 100
7 | O=C1CCC(N2C(=O)c3cc4c(cc3C2=O)CN(CC2CN(CC3CN(c5ccc([C@@H]6c7ccc(O)cc7CC[C@@H]6c6ccc(F)cc6)cc5)C3)C2)C4)C(=O)N1 (stereo partly drawn) [E 278, 2-(2,6-dioxopiperidin-3-yl)-6-((1-((1-(4-((1R,2S)-2-(4-fluorophenyl)-6-hydroxy-1,2,3,4-tetrahydronaphthalen-1-yl)phenyl)azetidin-3-yl)methyl)azetidin-3-yl)methyl)-6,7-dihydropyrrolo[3,4-f]isoindole-1,3(2H,5H)-dione] | > 100

Other lines, results leading:

Row | DC50 [nM] | Compound
8 | 10 to 100 | O=C1CCC(N2Cc3cc4c(cc3C2=O)CN(C2CCN(CC3CN(c5ccc([C@H]6c7ccc(O)cc7CC[C@H]6c6ccc(F)cc6)cc5)C3)CC2)C4)C(=O)N1 (stereo partly drawn) [E 279, 3-(6-(1-((1-(4-((1S,2R)-2-(4-fluorophenyl)-6-hydroxy-1,2,3,4-tetrahydronaphthalen-1-yl)phenyl)azetidin-3-yl)methyl)piperidin-4-yl)-1-oxo-3,5,6,7-tetrahydropyrrolo[3,4-f]isoindol-2(1H)-yl)piperidine-2,6-dione]
9 | > 100 | C[C@@H]1Cc2c([nH]c3ccccc23)[C@@H](c2ccc(N3CCC4(CCN(C(=O)CN5Cc6cc7c(cc6C5)C(=O)N(C5CCC(=O)NC5=O)C7=O)CC4)CC3)cn2)N1CC(F)F (stereo partly drawn) [E 280, 6-(2-(9-(6-((1S,3R)-2-(2,2-difluoroethyl)-3-methyl-2,3,4,9-tetrahydro-1H-pyrido[3,4-b]indol-1-yl)pyridin-3-yl)-3,9-diazaspiro[5.5]undecan-3-yl)-2-oxoethyl)-2-(2,6-dioxopiperidin-3-yl)-6,7-dihydropyrrolo[3,4-f]isoindole-1,3(2H,5H)-dione]
10 | 10 to 100 | C[C@@H]1Cc2c([nH]c3ccccc23)[C@@H](c2ccc(N3CCC4(CCN(C(=O)CN5Cc6cc7c(cc6C5)C(=O)N(C5CCC(=O)NC5=O)C7=O)CC4)CC3)nc2)N1CC(F)F (stereo partly drawn) [E 281, 6-(2-(9-(5-((1R,3R)-2-(2,2-difluoroethyl)-3-methyl-2,3,4,9-tetrahydro-1H-pyrido[3,4-b]indol-1-yl)pyridin-2-yl)-3,9-diazaspiro[5.5]undecan-3-yl)-2-oxoethyl)-2-(2,6-dioxopiperidin-3-yl)-6,7-dihydropyrrolo[3,4-f]isoindole-1,3(2H,5H)-dione]
11 | > 100 | C[C@@H]1Cc2c([nH]c3ccccc23)[C@@H](c2c(F)cc(C3CCC(CN4CCC(N5Cc6cc7c(cc6C5)C(=O)N(C5CCC(=O)NC5=O)C7=O)CC4)CC3)cc2F)N1CC(F)F (stereo partly drawn) [E 282, 6-(1-((4-(4-((1R,3R)-2-(2,2-difluoroethyl)-3-methyl-2,3,4,9-tetrahydro-1H-pyrido[3,4-b]indol-1-yl)-3,5-difluorophenyl)cyclohexyl)methyl)piperidin-4-yl)-2-(2,6-dioxopiperidin-3-yl)-6,7-dihydropyrrolo[3,4-f]isoindole-1,3(2H,5H)-dione]
12 | > 100 | C[C@@H]1Cc2c([nH]c3ccccc23)[C@@H](c2c(F)cc(C3CCC(CN4CC(CN5Cc6cc7c(cc6C5)C(=O)N(C5CCC(=O)NC5=O)C7=O)C4)CC3)cc2F)N1CC(F)F (stereo partly drawn) [E 283, 6-((1-((4-(4-((1R,3R)-2-(2,2-difluoroethyl)-3-methyl-2,3,4,9-tetrahydro-1H-pyrido[3,4-b]indol-1-yl)-3,5-difluorophenyl)cyclohexyl)methyl)azetidin-3-yl)methyl)-2-(2,6-dioxopiperidin-3-yl)-6,7-dihydropyrrolo[3,4-f]isoindole-1,3(2H,5H)-dione]
13 | > 100 | O=C1CCC(N2Cc3cc4c(cc3C2=O)CN(C(=O)C2CCN(CC3CCN(c5ccc([C@@H]6c7ccc(O)cc7CC[C@@H]6c6ccccc6)cc5)CC3)CC2)C4)C(=O)N1 (stereo partly drawn) [E 284, 3-(6-(1-((1-(4-((1R,2S)-6-hydroxy-2-phenyl-1,2,3,4-tetrahydronaphthalen-1-yl)phenyl)piperidin-4-yl)methyl)piperidine-4-carbonyl)-1-oxo-3,5,6,7-tetrahydropyrrolo[3,4-f]isoindol-2(1H)-yl)piperidine-2,6-dione]
14 | > 100 | O=C1CCC(N2C(=O)c3cc4c(cc3C2=O)CN(C2CCN(CC3(F)CN(c5ccc([C@@H]6c7ccc(O)cc7CC[C@@H]6c6ccccc6)cc5)C3)CC2)C4)C(=O)N1 (stereo partly drawn) [E 285, 2-(2,6-dioxopiperidin-3-yl)-6-(1-((3-fluoro-1-(4-((1R,2S)-6-hydroxy-2-phenyl-1,2,3,4-tetrahydronaphthalen-1-yl)phenyl)azetidin-3-yl)methyl)piperidin-4-yl)-6,7-dihydropyrrolo[3,4-f]isoindole-1,3(2H,5H)-dione]
15 | > 100 | O=C1CCC(N2C(=O)c3cc4c(cc3C2=O)CN(CC2CCN(CC3(F)CN(c5ccc([C@@H]6c7ccc(O)cc7CC[C@@H]6c6ccccc6)cc5)C3)CC2)C4)C(=O)N1 (stereo partly drawn) [E 286, 2-(2,6-dioxopiperidin-3-yl)-6-((1-((3-fluoro-1-(4-((1R,2S)-6-hydroxy-2-phenyl-1,2,3,4-tetrahydronaphthalen-1-yl)phenyl)azetidin-3-yl)methyl)piperidin-4-yl)methyl)-6,7-dihydropyrrolo[3,4-f]isoindole-1,3(2H,5H)-dione]
16 | > 100 | CN(C1CCC(CN2Cc3cc4c(cc3C2)C(=O)N(C2CCC(=O)NC2=O)C4=O)CC1)C1CCN(c2ccc([C@@H]3c4ccc(O)cc4CC[C@@H]3c3ccccc3)cc2)CC1 (stereo partly drawn) [E 289, 2-(2,6-dioxopiperidin-3-yl)-6-((4-((1-(4-((1R,2S)-6-hydroxy-2-phenyl-1,2,3,4-tetrahydronaphthalen-1-yl)phenyl)piperidin-4-yl)(methyl)amino)cyclohexyl)methyl)-6,7-dihydropyrrolo[3,4-f]isoindole-1,3(2H,5H)-dione]
17 | 10 to 100 | O=C1CCC(N2C(=O)c3cc4c(cc3C2=O)CN(C2CCC(CN3CCN(c5ccc([C@@H]6c7ccc(O)cc7CC[C@@H]6c6ccccc6)cc5)CC3)CC2)C4)C(=O)N1 (stereo partly drawn) [E 290, 2-(2,6-dioxopiperidin-3-yl)-6-(4-((4-(4-((1R,2S)-6-hydroxy-2-phenyl-1,2,3,4-tetrahydronaphthalen-1-yl)phenyl)piperazin-1-yl)methyl)cyclohexyl)-6,7-dihydropyrrolo[3,4-f]isoindole-1,3(2H,5H)-dione]

Reference: patent publication US20240190880A1 (THE REGENTS OF THE UNIVERSITY OF MICHIGAN, priority 2021, published 2024)
